In PubChem BioAssay (NCI):
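These data come from cells grown in 96-well plates and exposed to compound for 48 hours at five concentrations. Abbreviation: GI50, concentration required for 50% inhibition of growth. TGI marks complete inhibition of growth.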

Columns and labels:
Test in all cases: growth of human tumour cells (NCI), 48 h
[1] = tested on: HS 578T breast
[2] = tested on: RXF 393 renal
[3] = tested on: U251 CNS
[4] = tested on: UACC-62 melanoma
[5] = tested on: EKVX NSCLC
[6] = tested on: T-47D breast
[7] = tested on: OVCAR-4 ovarian
[8] = tested on: HCT-15 colon
[9] = tested on: CAKI-1 renal
[10] = tested on: SN12C renal

Structure (SMILES) | GI50 [1] | TGI [1] | GI50 [2] | TGI [2] | GI50 [3] | TGI [3] | GI50 [4] | TGI [4] | GI50 [5] | TGI [5] | GI50 [6] | TGI [6] | GI50 [7] | TGI [7] | GI50 [8] | TGI [8] | GI50 [9] | TGI [9] | GI50 [10] | TGI [10]
CC1CCN(C(=O)OCc2nc3nc(Cl)nc(N4CCOCC4)c3[nH]2)CC1 | 1.76 µM | 4.85 µM | 0.554 µM | 2 µM | 1.66 µM | 3.43 µM | 1.29 µM | 2.55 µM | 1.48 µM | 3.3 µM | 1.76 µM | 4.89 µM | 1.35 µM | 2.72 µM | 0.634 µM | 2.22 µM | 0.72 µM | 2.27 µM | 0.865 µM | 2.16 µM
CN(C)CCC(=O)C(=Cc1ccc(O)cc1)C(=O)CCN(C)C | > 100 µM | > 100 µM | > 100 µM | > 100 µM | 61.5 µM | > 100 µM | > 100 µM | > 100 µM | > 100 µM | > 100 µM | 47.7 µM | > 100 µM | 26.2 µM | > 100 µM | 52.5 µM | > 100 µM | 16.4 µM | 32.5 µM | > 100 µM | > 100 µM
COc1ccc(C2=C(c3ccc(OC)cc3)C(=O)N3CCCC3C2)cc1 (stereo not given) | 69.5 µM | > 100 µM | 17.7 µM | > 83.2 µM | 5.99 µM | > 100 µM | 9.09 µM | > 100 µM | 30.2 µM | > 100 µM | 28 µM | > 100 µM | 15.5 µM | > 100 µM | 0.733 µM | > 55.7 µM | 21.1 µM | > 100 µM | 22.5 µM | > 100 µM
S=c1[nH]c2c(Cl)c(Cl)c(Cl)c(Cl)c2[nH]1 | – | 69.4 µM | – | 35.4 µM | – | > 100 µM | – | 33.3 µM | – | 37.4 µM | – | > 100 µM | – | 22.6 µM | – | 53.5 µM | – | 64.7 µM | – | 47 µM
CN(C)c1ncnc2c1ncn2CCn1cnc2c(N(C)C)ncnc21 | – | > 100 µM | – | > 100 µM | – | > 100 µM | – | > 100 µM | – | > 100 µM | – | > 100 µM | – | > 100 µM | – | > 100 µM | – | > 100 µM | – | > 100 µM
CCc1c(Cl)c(C)cc(O)c1Cl | – | 99.7 µM | – | > 100 µM | – | 29 µM | – | > 100 µM | – | > 100 µM | – | > 100 µM | – | > 100 µM | – | 38.9 µM | – | > 100 µM | – | 30.9 µM
COC(=O)c1ccc(-c2c(C#N)[n+](=O)c3cc(Cl)c(Cl)cc3n2[O-])cc1 | 25.7 µM | 92.2 µM | 12.1 µM | 28 µM | 16.7 µM | 44.9 µM | 15.3 µM | 31.7 µM | 21.7 µM | 47.8 µM | 2.48 µM | 6.08 µM | 19.7 µM | 38 µM | 11.1 µM | 91.2 µM | 18.9 µM | 35.4 µM | 14.7 µM | 29.3 µM
CCOC(=O)/C=C/c1ccc(C#Cc2ccccc2)cc1 | > 100 µM | > 100 µM | 49.2 µM | > 100 µM | > 100 µM | > 100 µM | 83.5 µM | > 100 µM | 0.0608 µM | 43.1 µM | 86.8 µM | > 100 µM | 68.4 µM | > 100 µM | > 100 µM | > 100 µM | > 100 µM | > 100 µM | > 100 µM | > 100 µM
COc1cc2c3c(c1OC)-c1cc4c(cc1CC3(C#N)N(C(=O)c1ccccc1)CC2)OCO4 (stereo not given) | – | 82 µM | – | 26.9 µM | – | 53.5 µM | – | 43.2 µM | – | > 100 µM | – | > 100 µM | – | 43 µM | – | > 100 µM | – | > 81 µM | – | > 100 µM
CS(=O)(=O)Nc1cc(-c2ccc3ncnc(Nc4c(Cl)ccc5c4OCO5)c3c2)cnc1Cl | 0.0477 µM | 0.521 µM | 0.143 µM | 0.575 µM | 0.331 µM | 2.63 µM | 0.0732 µM | 0.785 µM | 0.116 µM | 0.824 µM | 0.0243 µM | 0.606 µM | 0.348 µM | 4.45 µM | 0.204 µM | 1.49 µM | 0.053 µM | 0.869 µM | 0.202 µM | > 100 µM
Cc1cc(N(CCCNc2ccnc3cc(Cl)ccc23)Cc2ccc3c(c2)OCO3)nc(N2CCOCC2)n1 | 0.288 µM | 18.6 µM | 0.202 µM | 0.53 µM | 0.323 µM | 3.18 µM | 0.217 µM | 0.501 µM | 0.299 µM | > 100 µM | 0.323 µM | 0.998 µM | 0.402 µM | 32.8 µM | 0.311 µM | 11.7 µM | – | – | 0.292 µM | 14.4 µM
CC(C)=CCc1cc2c(cc1O)OC[C@H]1c3cc4c(cc3O[C@@H]21)OCO4 | – | 75.5 µM | – | 48.7 µM | – | > 100 µM | – | > 100 µM | – | 76.9 µM | – | > 100 µM | – | > 100 µM | – | > 100 µM | – | > 100 µM | – | –
CC(C)OC(=O)[C@H](C)NP(=O)(OC[C@H]1O[C@@H](n2ccc(=O)[nH]c2=O)[C@](C)(F)[C@@H]1O)Oc1ccccc1 (stereo not given in full) | > 100 µM | > 100 µM | > 100 µM | > 100 µM | > 100 µM | > 100 µM | > 100 µM | > 100 µM | > 100 µM | > 100 µM | > 100 µM | > 100 µM | > 100 µM | > 100 µM | > 100 µM | > 100 µM | – | – | > 100 µM | > 100 µM
CN(C)CCSc1cc(-c2ccccc2)c2ccccc2n1 | – | 21.9 µM | – | 15.8 µM | – | 22.5 µM | – | 9.45 µM | – | 30.3 µM | – | 34.4 µM | – | – | – | 14.6 µM | – | 30.9 µM | – | 32.2 µM
COc1ccc(/C(=C\C=C(C#N)C#N)Sc2nc3ccccc3s2)cc1 | 31.2 µM | > 50 µM | 1.47 µM | 2.97 µM | 3.39 µM | 11 µM | 8.63 µM | 18.7 µM | 10.5 µM | 22 µM | 6.82 µM | 27 µM | – | – | – | – | 15.8 µM | > 50 µM | 7.06 µM | 32.8 µM
